The record followed here is patent US7544708B2, “Azabicyclo derivatives as muscarinic receptor antagonists” (Ranbaxy Laboratories Limited, priority 2002, dated 2009).

Counter-ions that a name gives are not always drawn. Like-named read-outs stand apart in the source and are kept apart here.

Assay [1] concerns the target T1, M2 muscarinic receptor subtype (rat heart) (Rattus norvegicus, UniProt P10980).
T1 construct: Submandibular glands and heart were isolated and placed in ice cold homogenising buffer; from tissue; host or cells: rat heart membranes
T1 sequence (P10980 1-466): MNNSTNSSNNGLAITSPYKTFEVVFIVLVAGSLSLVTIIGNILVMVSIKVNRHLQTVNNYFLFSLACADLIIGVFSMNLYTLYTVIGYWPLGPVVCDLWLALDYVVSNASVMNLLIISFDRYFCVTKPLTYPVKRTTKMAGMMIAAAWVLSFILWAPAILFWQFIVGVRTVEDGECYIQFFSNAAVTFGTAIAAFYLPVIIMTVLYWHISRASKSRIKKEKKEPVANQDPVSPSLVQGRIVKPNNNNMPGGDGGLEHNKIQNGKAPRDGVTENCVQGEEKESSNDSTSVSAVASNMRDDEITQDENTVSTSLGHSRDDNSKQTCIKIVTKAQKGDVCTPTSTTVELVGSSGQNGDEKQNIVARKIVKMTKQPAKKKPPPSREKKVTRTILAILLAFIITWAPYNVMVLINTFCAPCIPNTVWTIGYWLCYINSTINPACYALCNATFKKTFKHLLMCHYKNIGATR
The experiment in a line: Radioligand binding assay, [3H]-N-methylscopolamine, M2. The protocol:
(§1) The membrane preparation was done with the following modifications: a low spin step of 500 g for 10 minutes at 4° C. was used; the buffer was 20 mM HEPES, 10 mM EDTA, at pH 7.4; the high speed spin was done at 40,000 g and the homogenate was passed through a filter gauge before any spinning.
(§2) Membrane preparation: Submandibular glands and heart were isolated and placed in ice cold homogenising buffer (HEPES 20 mM, 10 mM EDTA, pH 7.4) immediately after sacrifice. The tissues were homogenised in 10 volumes of homogenising buffer and the homogenate was filtered through two layers of wet gauze and filtrate was centrifuged at 500 g for 10 min. The supernatant was subsequently centrifuged at 40,000 g for 20 min. The pellet thus obtained was resuspended in same volume of assay buffer (HEPES 20 mM, EDTA 5 mM, pH 7.4) and were stored at −700C until the time of assay.
(§3) Ligand binding assay: The compounds were dissolved and diluted in DMSO. The membrane homogenates (150-250 μg protein) were incubated in 250 μl of assay buffer (HEPES 20 mM, pH 7.4) at 24-25° C. for 3 h. […] The incubation was terminated by vacuum filtration over GF/B fiber filters (Wallac). The filters were then washed with ice cold 50 mM Tris HCl buffer (pH 7.4). The filter mats were dried and bound radioactivity retained on filters was counted. The IC50 and Kd were estimated by using the non-linear curve fitting program using G Pad Prism software.

For assay [2], the target named is T2, M3 muscarinic receptor subtype (rat submandibular gland) (Rattus norvegicus, UniProt P08483).
T2 construct: Submandibular glands and heart were isolated and placed in ice cold homogenising buffer; from tissue; host or cells: rat submandibular gland membranes
The experiment in a line: Radioligand binding assay, [3H]-N-methylscopolamine, M3. On the procedure:
as §1, §2, §3

Assay [3] concerns carbachol evoked changes on bladder pressure, heart rate and salivation. The experiment in a line: In vivo experiments using anesthetized rabbit. The conditions noted are these: for ID50 Bladder Pressure / ID50 Heart Rate Response / ID50 Salivary Response: carbachol 1.5 μg/kg intrarterial, i.v. test compound; for Fold Selectivity Bladder versus Heart Rate / Fold Selectivity Bladder versus Salivary: from ID50 values. On the procedure: In vivo experiments using anesthetized rabbit: The effect of test substances was studied on carbachol evoked changes on bladder pressure, heart rate and salivation. Male rabbits weighing 1.2-3 kg were anaesthetized with urethane (1.5 g/kg), and administered as a slow intravenous infusion through the marginal ear vein. The tracheae were cannulated to maintain airway patency. Blood pressure was recorded from the femoral artery by means of a Statham P10 EZ pressure transducer connected to a Grass model 7D polygraph. The heart rate was monitored by a tachograph triggered by the pulse wave of blood pressure. The other femoral artery was cannulated for the administration of carbachol. Test compound and saline were infused intravenously via the femoral vein.
The bladder was exposed through a midline laparotomy and both the ureters were identified, carefully separated and ligated. The ureters were incised proximally to allow free flow of urine from the kidney to the exterior. Bladder neck was gently held and the urethra was traced and separated from the adjoining tissues. PE canula was introduced into the bladder and ligated. The bladder was drained and subsequently filled with 15 ml of warm saline (37° C.). The other end of the intravesical catheter was connected to the Grass model 7D polygraph through a Statham P10 EZ pressure transducer to monitor the bladder pressure. Care was taken to keep the exposed area moist and warm. A period of 30-60 min was allowed for stabilization of parameters subsequent to surgery. Salivation response was assessed by placing preweighed absorbent cotton gauze in the buccal cavity for 2 minutes after carbachol administration.
At least two stable responses were obtained. These responses were considered as 100%. Subsequently, effect of increasing dose of test compound or vehicle (i.v,12 to 15 min before carbachol challenge) was studied.
The change in bladder pressure, salivation and agonist induced bradycardia were expressed as % change from pretreatment control.

[4] abbreviates: Receptor Binding Assay M2 pKi, [3H]-N-methylscopolamine, rat heart membranes.
The mark [5] stands for this setting: Receptor Binding Assay M3 Pki, [3H]-N-methylscopolamine, rat submandibular gland membranes.

T2 sequence (P08483 whole entry): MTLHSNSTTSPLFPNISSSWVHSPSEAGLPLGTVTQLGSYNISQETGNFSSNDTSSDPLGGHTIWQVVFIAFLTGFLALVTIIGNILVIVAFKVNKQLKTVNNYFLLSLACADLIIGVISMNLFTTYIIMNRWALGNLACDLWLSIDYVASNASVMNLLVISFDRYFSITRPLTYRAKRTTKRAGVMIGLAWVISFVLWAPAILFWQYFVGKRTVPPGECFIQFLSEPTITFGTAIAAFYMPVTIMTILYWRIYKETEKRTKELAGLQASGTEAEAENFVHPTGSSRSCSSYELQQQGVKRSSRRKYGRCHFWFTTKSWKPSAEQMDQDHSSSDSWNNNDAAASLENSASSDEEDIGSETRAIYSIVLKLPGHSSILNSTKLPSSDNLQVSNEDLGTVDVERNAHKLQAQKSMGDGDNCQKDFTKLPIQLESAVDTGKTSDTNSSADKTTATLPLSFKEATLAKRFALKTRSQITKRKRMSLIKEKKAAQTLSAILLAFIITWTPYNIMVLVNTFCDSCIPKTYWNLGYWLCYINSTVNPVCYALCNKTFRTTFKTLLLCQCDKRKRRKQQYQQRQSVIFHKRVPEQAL

Regarding `O=C(NCC1C2CNCC21)C(O)(c1ccccc1)C1CCC(F)C1` (mixture of isomers) [Compound 12, (2R,2S) (1α,5α,6α)-N-[3-azabicyclo[3.1.0]hexyl-6-(aminomethyl)-yl]-2-hydroxy-2-(3-fluorocyclopentyl)-2-phenyl acetamide], the Ki in assay [1] (Receptor Binding Assay M2 pKi) was 25.1 nM; in assay [2] (Receptor Binding Assay M3 Pki), 0.912 nM.

On to `O=C(NCC1C2CNCC21)C(O)(c1ccccc1)C1CCC(F)(F)C1` (mixture of isomers) [Compound 13, (2R,2S) (1α,5α,6α)-N-[3-azabicyclo[3.1.0]hexyl-6-(aminomethyl)-yl]-2-hydroxy-2-(3,3-difluorocyclopentyl)-2-phenyl acetamide], for which the results for the Ki in assay [1] (Receptor Binding Assay M2 pKi) and in assay [2] (Receptor Binding Assay M3 Pki) were 50.1 nM and 2 nM, respectively.

As to `O=C(NCC1C2CNCC21)C(O)(c1ccccc1)C1CCC(F)(F)C1` (mixture of isomers) [Compound 14, (2R,2S) (1α,5α,6α)-N-[3-azabicyclo[3.1.0]hexyl-6-(aminomethyl)-yl]-2-hydroxy-2-(3,3-difluorocyclopentyl)-2-phenyl acetamide tartarate salt], the Ki in assay [1] (Receptor Binding Assay M2 pKi) was 72.4 nM; in assay [2] (Receptor Binding Assay M3 Pki), 1.35 nM.

As for `O=C(NC[C@H]1[C@@H]2CNC[C@@H]21)C(O)(c1ccccc1)C1CCCC1` (mixture of isomers) [Compound 2, (2R,2S) (1α,5α,6α)-N-[3-azabicyclo[3.1.0]hexyl-6-(aminomethyl)-yl]-2-hydroxy-2-cyclopentyl-2-phenyl acetamide hydrochloride salt], in assay [3], the “ID50 Bladder Pressure” value is listed as 3.93 ± 1.1 μg/kg, i.v; the “ID50 Heart Rate Response” value was 21.13 ± 4.47 μg/kg, i.v; the “ID50 Salivary Response” value was 7.67 ± 1.19 μg/kg, i.v; the “Fold Selectivity Bladder versus Heart Rate” value stood at 12.6 ± 5.7. Besides, in assay [3], the “Fold Selectivity Bladder versus Salivary” value was 3.08 ± 0.94. For the same compound, the Ki in assay [1] (Receptor Binding Assay M2 pKi) was 4.37 nM. For the same compound, the Ki in assay [2] (Receptor Binding Assay M3 Pki) is 0.316 nM.

Regarding `COC(C(=O)NC[C@H]1[C@@H]2CNC[C@@H]21)(c1ccccc1)C1CCCC1` (mixture of isomers) [Compound 7, (2R,2S) (1α,5α,6α)-N-[3-azabicyclo[3.1.0]hexyl-6-(aminomethyl)-yl]-2-methoxy-2-cyclopentyl-2-phenyl acetamide], the Ki in assay [1] ([3H]-N-methylscopolamine, rat heart membranes, read-out: Receptor Binding Assay M2 pKi (converted)) is 25.1 nM; in assay [2] ([3H]-N-methylscopolamine, rat submandibular gland membranes, read-out: Receptor Binding Assay M3 Pki (converted)), 2.45 nM.

For `O=C(NC[C@H]1[C@@H]2CNC[C@@H]21)C(O)(c1ccccc1)C1CCCCCC1` (mixture of isomers) [Compound 8, (2R,2S) (1α,5α,6α)-N-[3-azabicyclo[3.1.0]hexyl-6-(aminomethyl)-yl]-2-hydroxy-2-cycloheptyl-2-phenyl acetamide], the figures for the Ki in assay [1] (Receptor Binding Assay M2 pKi) and in assay [2] (Receptor Binding Assay M3 Pki) were 44.7 nM and 1.48 nM, respectively.

Take `O=C(NC[C@H]1[C@@H]2CNC[C@@H]21)C(O)(c1ccccc1)C1CCCCC1` (mixture of isomers) [Compound 17, (2R,2S) (1α,5α,6α)-N-[3-azabicyclo[3.1.0]hexyl-6-(aminomethyl)-yl]-2-hydroxy-2-cyclohexyl-2-phenyl acetamide]: the Ki in assay [1] (Receptor Binding Assay M2 pKi) was 50.1 nM; in assay [2] (Receptor Binding Assay M3 Pki) it was 1.35 nM.

On to `CN(C[C@H]1[C@@H]2CNC[C@@H]21)C(=O)C(O)(c1ccccc1)C1CCCC1` (mixture of isomers) [Compound 18, (2R,2S) (1α,5α,6α)-N-[3-azabicyclo[3.1.0]hex-6-ylmethyl)-2-cyclopentyl-2-hydroxy-N-methyl-2-phenyl acetamide], for which the results for the Ki in assay [1] (Receptor Binding Assay M2 pKi) and in assay [2] (Receptor Binding Assay M3 Pki) were 2.75 nM and 0.38 nM, respectively.

With `O=C(NC[C@H]1[C@@H]2CNC[C@@H]21)[C@](O)(c1ccccc1)C1CCC(F)(F)C1` (single isomer, unassigned) [Compound 11], the Ki is 39.8 nM in assay [1] (Receptor Binding Assay M2 pKi) and 1.26 nM in assay [2] (Receptor Binding Assay M3 Pki).

As to `O=C(NC[C@H]1[C@@H]2CNC[C@@H]21)[C@](O)(c1ccccc1)C1CCCC1` [Compound 4, (2R)-(1α,5α,6α)-N-[3-azabicyclo[3.1.0]hexyl-6-(aminomethyl)-yl]-2-hydroxy-2-cyclopentyl 2-phenyl acetamide hydrochloride salt], in assay [3], the “ID50 Bladder Pressure” value was 2.14 ± 0.42 μg/kg, i.v; the “ID50 Heart Rate Response” value is 5.65 ± 0.86 μg/kg, i.v; the “ID50 Salivary Response” value is listed as 4.66 ± 0.56 μg/kg, i.v; the “Fold Selectivity Bladder versus Heart Rate” value came out at 3.43 ± 1.02. In addition, in assay [3], the “Fold Selectivity Bladder versus Salivary” value is on record as 2.37 ± 0.22. The Ki in assay [1] (Receptor Binding Assay M2 pKi) is 3.72 nM. The Ki in assay [2] (Receptor Binding Assay M3 Pki) is 0.224 nM.

Take `O=C(NC[C@H]1[C@@H]2CNC[C@@H]21)[C@@](O)(c1ccccc1)C1CCCC1` [Compound 5, (2S)-(1α,5α,6α)-N-[3-azabicyclo[3.1.0]hexyl-6-(aminomethyl)-yl]-2-hydroxy-2-cyclopentyl 2-phenyl acetamide]: the Ki in assay [1] (Receptor Binding Assay M2 pKi) was 158 nM; in assay [2] (Receptor Binding Assay M3 Pki), 31.6 nM.

On to `O=C(NC[C@H]1[C@@H]2CNC[C@@H]21)[C@@](O)(c1ccccc1)C1CCCC1` [Compound 6, (2S)-(1α,5α,6α)-N-[3-azabicyclo[3.1.0]hexyl-6-(aminomethyl)-yl]-2-hydroxy-2-cyclopentyl 2-phenyl acetamide hydrochloride salt], for which the Ki in assay [1] (Receptor Binding Assay M2 pKi) was 77.6 nM; in assay [2] (Receptor Binding Assay M3 Pki) it was 13.2 nM.

Turning to `O=C(NCC1C2CNCC21)C(O)(c1ccccc1)C1CCC1` [Compound 9, (2R,2S) (1α,5α,6α)-N-[3-azabicyclo[3.1.0]hexyl-6-(aminomethyl)-yl]-2-hydroxy-2-cyclobutyl-2-phenyl acetamide], the Ki in assay [1] (Receptor Binding Assay M2 pKi) was 9.55 nM; in assay [2] (Receptor Binding Assay M3 Pki), 1.26 nM.

`O=C(NCC1C2CNCC21)C(O)(c1ccccc1)C1CCC1` [Compound 10, (2R,2S) (1α,5α,6α)-N-[3-azabicyclo[3.1.0]hexyl-6-(aminomethyl)-yl]-2-hydroxy-2-cyclobutyl-2-phenyl acetamide tartarate salt]: the Ki in assay [1] (Receptor Binding Assay M2 pKi) is 6.31 nM; in assay [2] (Receptor Binding Assay M3 Pki) it was 0.316 nM.

`O=C(OC[C@H]1[C@@H]2CNC[C@@H]21)C(O)(c1ccccc1)c1ccccc1` [Compound 15, (2R,2S) (1α,5α,6α)-N-[3-azabicyclo[3.1.0]hexyl-6-(aminomethyl)-yl]-2-hydroxy-2,2-diphenyl acetate]: the Ki in assay [1] (setting [4]) was 0.219 nM; in assay [2] (setting [5]), 0.0661 nM.

As for `O=C(NC[C@H]1[C@@H]2CNC[C@@H]21)C(O)(c1ccccc1)c1ccccc1` [Compound 16, (2R,2S) (1α,5α,6α)-N-[3-azabicyclo[3.1.0]hexyl-6-(aminomethyl)-yl]-2-hydroxy-2,2-diphenyl acetamide], the Ki is 11.2 nM in assay [1] (setting [4]) and 0.389 nM in assay [2] (setting [5]).

Consider `Cc1ccc(O)c([C@H](CCN(C(C)C)C(C)C)c2ccccc2)c1` [Tolterodine, reference compound], for which, in assay [3], the “ID50 Bladder Pressure” value is 25.84 ± 4.24 μg/kg, i.v; the “ID50 Heart Rate Response” value was 32.54 ± 5.77 μg/kg, i.v; the “ID50 Salivary Response” value is 32.5 ± 10.02 μg/kg, i.v.
